Data reported in US20260232607A1, “COMPOSITIONS AND METHODS INVOLVING ISOLATED COMPOUNDS” (CuraSen Therapeutics, Inc., priority 2022, published 2026).
Read-outs that look alike come from different tables or passages of the source.

Legend:
OATP1A2 [1] = biological target: T1, OATP1A2 (Homo sapiens, UniProt P46721); experiment: Uptake in OATP1A2-transfected cells versus control cells; settings: 2-fold threshold
T1 sequence (P46721 1-670): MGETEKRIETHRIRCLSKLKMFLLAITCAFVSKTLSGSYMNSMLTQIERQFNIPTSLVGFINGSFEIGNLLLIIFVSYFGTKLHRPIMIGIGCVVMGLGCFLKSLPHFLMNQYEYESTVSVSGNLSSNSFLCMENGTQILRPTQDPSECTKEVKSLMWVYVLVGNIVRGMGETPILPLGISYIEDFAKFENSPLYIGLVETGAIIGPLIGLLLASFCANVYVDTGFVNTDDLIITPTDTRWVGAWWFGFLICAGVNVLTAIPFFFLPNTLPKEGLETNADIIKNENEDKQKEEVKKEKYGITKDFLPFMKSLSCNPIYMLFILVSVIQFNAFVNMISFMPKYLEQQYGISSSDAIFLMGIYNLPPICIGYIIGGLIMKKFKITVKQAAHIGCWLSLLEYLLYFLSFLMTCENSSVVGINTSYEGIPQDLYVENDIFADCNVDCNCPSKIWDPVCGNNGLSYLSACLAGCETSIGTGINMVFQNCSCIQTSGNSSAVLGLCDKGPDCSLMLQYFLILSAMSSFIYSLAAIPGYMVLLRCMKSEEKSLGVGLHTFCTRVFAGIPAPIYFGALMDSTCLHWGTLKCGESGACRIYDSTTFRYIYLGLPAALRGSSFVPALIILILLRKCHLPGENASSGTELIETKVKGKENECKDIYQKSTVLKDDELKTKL

β1-AR = biological target: T2, β1-AR (Homo sapiens, UniProt P08588); experiment: cAMP Gs HTRF assay, inhibition of isoproterenol-stimulated cAMP, affinity by Leff-Dougall equation; type: cell-based; settings: CHO-K1 cells, approximate EC80 isoproterenol
T2 construct: expressed in transfected cells; host or cells: CHO-K1
Source text: When cAMP turnover is reduced by blocking phosphodiesterases with IBMX, cAMP accumulation occurs, and this accumulation is detected in the cAMP Gs Homogenous Time Resolved Fluorescence (HTRF) assay. The HTRF assay is a competitive inhibition assay. Endogenous cAMP, produced by stimulated cells, competes with and prevents FRET between acceptor-labeled cAMP and donor-labeled cAMP antibody. Increases in endogenous cAMP therefore cause a reduction in HTRF signal, expressed as a ratio of FRET acceptor fluorescence and FRET donor fluorescence.
cAMP HTRF measurements were performed broadly according to the cAMP Gs dynamic kit protocol (Cisbio/Perkin Elmer, 62AM4PEC). Compounds were prepared at 2× final concentration to accommodate the subsequent addition of cells. […] Test compounds were serially diluted across the plate by nine 5-fold dilutions to generate a 10-point dose-response curve.
384 well plates containing compound were covered and stored at room temperature until resuspended cell addition.
D2-labelled cAMP (Acceptor) and Europium cryptate labelled cAMP antibody (Donor) (Cisbio/Perkin Elmer 62AM4PEC) were dissolved in water following the manufacturer's instructions, aliquoted and stored at −80° C.
CHO-K1 cells expressing exogenous β-ARs were resuspended using methods as described above, were recovered from flasks using PBS […] (Caisson PBL02) and centrifuged at 250×g for 5 minutes in a 50 ml falcon tube. PBS/versene was removed by aspiration and cells were resuspended in a minimal volume of room temperature 1× stimulation buffer+IBMX prior to cell counting. 5 ul cells of correct density (2000 cells/well) were added to compound in assay plates using a Multidrop Combi (Thermofisher). Cells and compounds were covered with a clear plate seal (Axygen PCR-SP) and incubated at 37° C., 5% CO2 for 30 minutes. cAMP accumulation was then stopped by adding 10 μL HTRF detection reagents in lysis buffer using the Multidrop Combi, plates were covered with an aluminum plate seal (Axygen PCR-AS-600) and agitated (Heidolph Titramax 1000, setting 600) for at least 2 hours, to allow competition between D2-cAMP and stimulated cAMP for the donor-labelled cAMP antibody to reach equilibrium.
HTRF was detected using a Tecan Spark plate reader, operated using SparkControl™ software, using the TR fluorescence intensity setting. Both donor and acceptor was excited at 320 nm, detected after 100 μs delay, with 400 μs integration time, and 50 flashes per read. […] To standardize reads across experiments, camera gain was manually set to 120 for donor detection, and 140 for acceptor detection.

β2-AR [2] = biological target: T3, β2-AR (Homo sapiens, UniProt P07550); experiment: Compound 03-5 β2-AR occupancy calculated with the Gaddum equation from measured plasma and CSF concentrations; settings: alone, no nadolol or isomer competition
β2-AR [3] = biological target: T3, β2-AR; experiment: Radioligand binding; settings: read-out: β2-AR affinity by radioligand binding
Source text: In contrast, NI-C blocks the fraction of peripheral β2-AR receptors bound by Compound 03-5 to 0.02 while maintaining the fraction of central β2-AR receptors bound by Compound 03-5 to 0.21.

clinical = settings: human, CSF/plasma
[4] = CSF and plasma concentrations in healthy human subjects dosed with Compound 03-5 and nadolol; settings: for CSF/Plasma ratio: Day 6; for Concentration in CSF / Concentration in plasma: Day 6, 2 hrs after Compound 03-5 (15 mg), nadolol 20 mg
OATP1A2 [5] = biological target: T1, OATP1A2
[6] = In vivo PK in rats (IV and PO); settings: male SD rat
Protocol: The rat pharmacokinetics studies of exemplary compounds NI-C and NI-D were conducted with male SD rats. These rats were typically about 6-8 weeks old, weighing 200 g to 300 g. Animals were fasted overnight and have free access to food 4 hours after dosing. A required volume of vehicle was added to reach the target concentration of the test article and vehicle component to prepare for the dosing. The dosing vehicle was PEG400 or 30% PEG400 in saline for IV, or 0.5% methylcellulose in water for PO. For IV dosing, the animals were administered intravenously via tail vein. For PO dosing, the animals were administered via oral gavage. After dosing, blood sample was collected (~0.2 mL per time point) through jugular vein or heart puncture. Blood of each sample was transferred into plastic micro centrifuge tubes containing EDTA-K2. Collection tubes with blood samples and anticoagulant were inverted several times for proper mixing of the tube contents and then placed on wet ice. The blood samples were centrifuged at 2000 g for 5 minutes at 4° C. to obtain plasma which was stored in a freezer at −75±15° C. prior to analysis. Samples were analyzed using LC-MS/MS. WinNonlin were used for pharmacokinetic calculations.

T2 sequence (P08588 whole entry): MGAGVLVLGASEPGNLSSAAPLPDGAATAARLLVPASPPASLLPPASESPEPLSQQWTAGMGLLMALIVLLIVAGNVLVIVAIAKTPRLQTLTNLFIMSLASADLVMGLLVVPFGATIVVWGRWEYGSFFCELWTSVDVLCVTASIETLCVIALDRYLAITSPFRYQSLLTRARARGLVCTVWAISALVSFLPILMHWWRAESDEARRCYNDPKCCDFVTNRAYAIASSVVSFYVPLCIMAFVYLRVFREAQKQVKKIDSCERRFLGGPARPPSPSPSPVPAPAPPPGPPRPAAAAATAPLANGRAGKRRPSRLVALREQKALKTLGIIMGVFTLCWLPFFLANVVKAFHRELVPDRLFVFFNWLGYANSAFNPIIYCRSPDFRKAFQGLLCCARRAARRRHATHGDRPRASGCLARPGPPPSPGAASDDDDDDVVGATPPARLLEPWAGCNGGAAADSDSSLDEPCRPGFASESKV
T3 sequence (P07550 whole entry): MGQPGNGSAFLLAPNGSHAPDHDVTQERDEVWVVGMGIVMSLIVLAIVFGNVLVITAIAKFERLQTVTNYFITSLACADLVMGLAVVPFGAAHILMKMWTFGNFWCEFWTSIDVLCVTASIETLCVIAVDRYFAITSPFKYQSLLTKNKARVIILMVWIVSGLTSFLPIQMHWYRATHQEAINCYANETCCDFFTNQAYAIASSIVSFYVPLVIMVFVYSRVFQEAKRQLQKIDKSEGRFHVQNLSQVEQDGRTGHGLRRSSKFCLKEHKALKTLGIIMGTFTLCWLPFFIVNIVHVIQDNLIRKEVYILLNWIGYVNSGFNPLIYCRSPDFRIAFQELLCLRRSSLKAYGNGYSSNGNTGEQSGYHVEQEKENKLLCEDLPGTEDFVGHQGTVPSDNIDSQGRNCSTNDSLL

Compound: CC(C)(C)NCC(O)COc1cccc2c1CC(O)C(O)C2 (centres unmarked) [(SSR)-NADOLOL]
- Substrate for OATP1A2 (OATP1A2 [1]): does not appear to be a substrate for OATP1A2

Compound: CC(C)(C)NCC(O)COc1cccc2c1CC(O)C(O)C2 (single isomer, unassigned) [NI-B, (RRS)-nadolol]
- Ki (β1-AR): 354 nM
- pKi (β1-AR): 6.45 ± 0.10

Compound: CC(C)(C)NCC(O)COc1cccc2c1CC(O)C(O)C2 (centres unmarked) [(SRS)-NADOLOL]
- Substrate for OATP1A2 (OATP1A2 [1]): appear to be substrates for OATP1A2

Compound: CC(C)(C)NCC(O)COc1cccc2c1CC(O)C(O)C2 (single isomer, unassigned) [NI-A, (RSR)-nadolol]
- Ki (β1-AR): 891 nM
- pKi (β1-AR): 6.05 ± 0.10

Compound: CC(C)(C)NC[C@H](O)c1cccc(C#N)n1 [Compound 03-5]
- Fraction of β2-AR receptors bound by Compound 03-5 in the CSF (β2-AR [2]): 0.29
- Fraction of β2-AR receptors bound by Compound 03-5 in the periphery (β2-AR [2]): 0.46
- Ki (β2-AR [3]): 374 nM
- Kp (clinical): 0.47
- Kp (clinical; oral): 0.42
- CSF/Plasma ratio ([4]; Average of 4 subjects): 47%
- Concentration in CSF ([4]; Average of 4 subjects): 34.675 ng/mL
- Concentration in plasma ([4]; Average of 4 subjects): 74.25 ng/mL
- Concentration in CSF ([4]; Subject A): 37 ng/mL
- Concentration in plasma ([4]; Subject A): 87.4 ng/mL
- CSF/Plasma ratio ([4]; Subject B): 44%
- Concentration in CSF ([4]; Subject B): 27.1 ng/mL
- Concentration in plasma ([4]; Subject B): 61.2 ng/mL
- CSF/Plasma ratio ([4]; Subject C): 42%
- Concentration in CSF ([4]; Subject C): 30.3 ng/mL
- Concentration in plasma ([4]; Subject C): 72.9 ng/mL
- CSF/Plasma ratio ([4]; Subject D): 59%
- Concentration in CSF ([4]; Subject D): 44.3 ng/mL
- Concentration in plasma ([4]; Subject D): 75.5 ng/mL

Compound: CC(C)(C)NCC(O)COc1cccc2c1CC(O)C(O)C2 (centres unmarked) [Nadolol, reference compound]
- Ki (β1-AR): 5.5 nM
- Substrate for OATP1A2 (OATP1A2 [5]): appear to be substrates for OATP1A2

Compound: CC(C)(C)NCC(O)COc1cccc2c1CC(O)C(O)C2 (single isomer, unassigned) [NI-C, (SRS)-nadolol]
- AUCInf ([6]; 1 mg/kg iv): 488 ng·h/mL
- C0 ([6]; 1 mg/kg iv): 1142 ng/mL
- CL ([6]; 1 mg/kg iv): 34.5 mL/min/kg
- T1/2 ([6]; 1 mg/kg iv): 2.87 h
- Vss ([6]; 1 mg/kg iv): 4.74 L/kg
- AUCInf ([6]; 5 mg/kg po): 200 ng·h/mL
- Cmax ([6]; 5 mg/kg po): 37.9 ng/mL
- MRT ([6]; 5 mg/kg po): 4.12 h
- Tmax ([6]; 5 mg/kg po): 1.08 h
- Bioavailability ([6]; 5 mg/kg po vs 1 mg/kg iv): 8.21%
- Ki (β1-AR): 4.6 nM
- pKi (β1-AR): 8.34 ± 0.12

Compound: CC(C)(C)NCC(O)COc1cccc2c1CC(O)C(O)C2 (single isomer, unassigned) [NI-D, (SSR)-nadolol]
- Ki (β1-AR): 2.6 nM
- pKi (β1-AR): 8.58 ± 0.18
